This note sets out measurements from patent US20250214991A1 (Oncopia Therapeutics, Inc. d/b/a/ SK Life Science Labs, priority 2022, published 2025).

Bounds are passed on as bounds.

Test [1] addresses CRBN/DDB1 (Homo sapiens (Human), UniProt Q96SW2). The test can be described thus: IC50 measurements for binding to CRBN/DDB1 (HTRF). The following applies: His tagged CRBN+DDB, Cy5-labeled Thalidomide probe, one hour. As to the method: In vitro Assay: IC50 Measurements for binding to CRBN/DDB1 (Table E1)
The binding potency was determined using HTRF assay technology (Perkin Elmer). Compounds were serially diluted in DMSO and 0.2 μL volume was transferred to white 384-well plate. The reaction was conducted in total volume of 20 μL with addition of 2 nM His tagged CRBN+DDB−DLS7+CXU4 (Wuxi, catalogue #RP210521GA) to compounds followed by addition of 60 nM Fluorescent probe Cy5-labeled Thalidomide (Tenova Pharma, catalogue #T52461), and 0.4 nM of MAb Anti-6HIS Tb cryptate Gold (Cisbio, catalogue #61HI2TLA in the assay buffer (50 mM HEPES pH 7.5, 1 mM TCEP, 0.01% Brij-35, 50 mM NaCl, and 0.1% BSA). After one hour incubation at room temperature, the HTRF signals were read on Envision reader (Perkin Elemer). Data was analyzed using XLfit using four parameters dose response curve to determine IC50s. A: IC50<0.1 μM; B: 0.1 μM<IC50<[…]; C: 0.5 μM<IC50<1 μM; D: 1 μM<IC50<5 μM; E: 5 μM<IC50<10 μM

The target in test [2] is IKZF2 (Homo sapiens (Human), UniProt Q96SW2+Q9UKS7). Briefly: In vitro IKZF2 HiBit Assay (HEK293T Flp-in-HiBiT cells). The class given is cell-based. The following applies: HEK293T Flp-in-HiBiT cells, 6 hrs incubation; for DC50: read-out: IKZF2 HiBit DC50; for Dmax: HEK-293T, read-out: IKZF2 HiBit Dmax (%). The gist of the method: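 HEK293T Flp-in cells carrying an endogenous N-terminal HiBiT tag on IKZF2 were exposed to compound for 6 h at 0.1% DMSO. The dilution series was 11 doses at 3-fold, diluted from 1 mM. Nano-Glo HiBiT lytic luminescence, normalized to DMSO, gave DC50 for 50% degradation and Dmax across the concentration range, both reported in letter bins.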
Sequence of IKZF2 (Q9UKS7 whole entry): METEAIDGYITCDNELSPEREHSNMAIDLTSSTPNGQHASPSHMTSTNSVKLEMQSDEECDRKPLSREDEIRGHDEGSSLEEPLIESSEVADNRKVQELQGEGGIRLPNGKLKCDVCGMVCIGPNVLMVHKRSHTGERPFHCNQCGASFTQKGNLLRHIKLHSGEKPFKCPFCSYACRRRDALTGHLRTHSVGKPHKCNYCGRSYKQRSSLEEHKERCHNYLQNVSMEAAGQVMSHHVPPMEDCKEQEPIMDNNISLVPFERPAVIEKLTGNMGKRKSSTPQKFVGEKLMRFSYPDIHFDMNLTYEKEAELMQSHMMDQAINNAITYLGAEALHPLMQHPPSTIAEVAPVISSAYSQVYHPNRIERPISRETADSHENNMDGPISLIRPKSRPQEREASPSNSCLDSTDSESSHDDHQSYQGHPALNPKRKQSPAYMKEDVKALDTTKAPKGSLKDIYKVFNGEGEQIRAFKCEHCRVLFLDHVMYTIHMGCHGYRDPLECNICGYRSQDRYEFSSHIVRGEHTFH
Sequence of IKZF2 (Q96SW2 whole entry): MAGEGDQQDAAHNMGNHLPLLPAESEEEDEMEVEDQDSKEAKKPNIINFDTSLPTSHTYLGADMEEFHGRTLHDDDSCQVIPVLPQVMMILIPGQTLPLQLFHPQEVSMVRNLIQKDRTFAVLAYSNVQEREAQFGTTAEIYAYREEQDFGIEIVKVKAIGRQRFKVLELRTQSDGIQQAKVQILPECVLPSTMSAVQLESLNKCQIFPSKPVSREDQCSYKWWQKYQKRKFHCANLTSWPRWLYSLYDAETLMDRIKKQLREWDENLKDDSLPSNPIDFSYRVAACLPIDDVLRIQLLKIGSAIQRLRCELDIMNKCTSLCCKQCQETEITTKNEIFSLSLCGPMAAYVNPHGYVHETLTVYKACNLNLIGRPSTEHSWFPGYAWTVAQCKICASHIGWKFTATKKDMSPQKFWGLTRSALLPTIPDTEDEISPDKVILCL
Sequence of IKZF2 (Q16531 2-1140 partner): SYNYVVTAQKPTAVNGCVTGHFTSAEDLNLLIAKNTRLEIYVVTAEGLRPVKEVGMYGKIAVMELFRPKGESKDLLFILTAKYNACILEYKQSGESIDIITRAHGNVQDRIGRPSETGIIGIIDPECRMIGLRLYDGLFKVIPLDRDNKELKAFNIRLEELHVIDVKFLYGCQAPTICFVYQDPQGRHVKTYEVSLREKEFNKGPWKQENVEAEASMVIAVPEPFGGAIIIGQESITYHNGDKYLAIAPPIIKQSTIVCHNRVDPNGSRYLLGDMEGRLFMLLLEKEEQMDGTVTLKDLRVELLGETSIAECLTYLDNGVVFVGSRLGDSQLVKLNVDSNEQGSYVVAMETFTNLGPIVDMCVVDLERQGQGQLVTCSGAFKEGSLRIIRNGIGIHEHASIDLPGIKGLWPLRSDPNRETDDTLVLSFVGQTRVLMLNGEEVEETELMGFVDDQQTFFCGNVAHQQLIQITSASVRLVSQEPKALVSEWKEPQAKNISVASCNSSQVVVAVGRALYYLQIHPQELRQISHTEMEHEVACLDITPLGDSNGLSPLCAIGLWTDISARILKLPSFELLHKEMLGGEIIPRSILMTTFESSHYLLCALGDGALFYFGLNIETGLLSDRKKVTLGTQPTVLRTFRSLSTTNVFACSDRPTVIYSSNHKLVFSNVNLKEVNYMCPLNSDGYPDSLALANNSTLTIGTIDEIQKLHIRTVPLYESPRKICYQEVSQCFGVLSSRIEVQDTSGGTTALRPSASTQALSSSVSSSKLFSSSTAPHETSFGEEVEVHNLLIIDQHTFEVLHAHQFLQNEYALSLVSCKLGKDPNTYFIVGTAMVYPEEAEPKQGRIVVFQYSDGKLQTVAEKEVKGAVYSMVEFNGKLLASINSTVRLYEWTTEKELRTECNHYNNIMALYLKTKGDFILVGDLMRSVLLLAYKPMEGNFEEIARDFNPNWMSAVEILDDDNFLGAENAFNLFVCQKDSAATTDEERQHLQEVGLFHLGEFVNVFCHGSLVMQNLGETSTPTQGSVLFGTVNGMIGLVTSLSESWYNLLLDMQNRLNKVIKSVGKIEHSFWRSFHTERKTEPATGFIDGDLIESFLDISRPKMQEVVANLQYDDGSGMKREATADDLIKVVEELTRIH

Test [3] has as its target IKZF1 (Homo sapiens (Human), UniProt Q13422+Q96SW2). The test can be described thus: In vitro IKZF1 HiBit Assay (HEK293T Flp-in-HiBiT-IKZF1 stable cell line). The class given is cell-based. As to conditions: HEK293T Flp-in-HiBiT-IKZF1 stable cell line, 6 hrs incubation; for DC50: read-out: IKZF1 HiBit DC50; for Dmax: HEK-293T, read-out: IKZF1 HiBit Dmax (%). The procedure, abridged:
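HEK293T Flp-in cells carrying N-terminal HiBiT-tagged IKZF1 were exposed to compound (0.1% DMSO) for 6 h at 3000 cells/well. HiBiT luminescence was read after lytic LgBiT detection. DC50 and Dmax were taken from DMSO-normalized dose-response curves.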

Sequence of CRBN/DDB1 (Q96SW2 whole entry, species assumed): as the sequence (Q96SW2 whole entry) above
Sequence of CRBN/DDB1 (Q16531 whole entry partner, species assumed): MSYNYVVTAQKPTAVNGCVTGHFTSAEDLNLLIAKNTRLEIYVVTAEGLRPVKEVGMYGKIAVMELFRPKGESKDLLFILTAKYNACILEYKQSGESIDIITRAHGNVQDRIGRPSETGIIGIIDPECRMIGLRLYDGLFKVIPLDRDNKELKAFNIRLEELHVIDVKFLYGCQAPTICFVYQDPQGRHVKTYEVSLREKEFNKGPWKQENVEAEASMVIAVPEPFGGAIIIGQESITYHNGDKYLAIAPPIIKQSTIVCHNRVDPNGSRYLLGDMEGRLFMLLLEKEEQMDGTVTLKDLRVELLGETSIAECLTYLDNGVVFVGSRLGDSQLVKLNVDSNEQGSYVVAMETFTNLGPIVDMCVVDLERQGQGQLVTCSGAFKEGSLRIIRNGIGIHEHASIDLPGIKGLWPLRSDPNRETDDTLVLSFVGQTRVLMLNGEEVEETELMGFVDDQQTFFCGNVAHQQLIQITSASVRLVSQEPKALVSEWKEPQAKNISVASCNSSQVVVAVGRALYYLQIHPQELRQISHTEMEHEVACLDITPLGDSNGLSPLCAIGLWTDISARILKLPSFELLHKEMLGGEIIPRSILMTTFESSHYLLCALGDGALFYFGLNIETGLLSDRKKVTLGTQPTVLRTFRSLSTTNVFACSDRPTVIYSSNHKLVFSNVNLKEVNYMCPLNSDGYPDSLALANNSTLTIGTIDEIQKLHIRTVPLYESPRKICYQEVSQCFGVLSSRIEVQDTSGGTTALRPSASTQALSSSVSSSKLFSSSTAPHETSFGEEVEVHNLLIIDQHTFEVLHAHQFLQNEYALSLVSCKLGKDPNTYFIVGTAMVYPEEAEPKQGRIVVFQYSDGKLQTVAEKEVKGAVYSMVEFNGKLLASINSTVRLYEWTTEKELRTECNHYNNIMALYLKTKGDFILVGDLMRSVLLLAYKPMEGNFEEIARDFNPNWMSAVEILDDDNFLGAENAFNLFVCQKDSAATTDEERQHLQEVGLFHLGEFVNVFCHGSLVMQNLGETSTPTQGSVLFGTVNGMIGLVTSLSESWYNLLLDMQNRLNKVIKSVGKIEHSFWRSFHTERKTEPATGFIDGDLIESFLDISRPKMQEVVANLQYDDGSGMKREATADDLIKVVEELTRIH
Sequence of IKZF1 (Q13422 whole entry): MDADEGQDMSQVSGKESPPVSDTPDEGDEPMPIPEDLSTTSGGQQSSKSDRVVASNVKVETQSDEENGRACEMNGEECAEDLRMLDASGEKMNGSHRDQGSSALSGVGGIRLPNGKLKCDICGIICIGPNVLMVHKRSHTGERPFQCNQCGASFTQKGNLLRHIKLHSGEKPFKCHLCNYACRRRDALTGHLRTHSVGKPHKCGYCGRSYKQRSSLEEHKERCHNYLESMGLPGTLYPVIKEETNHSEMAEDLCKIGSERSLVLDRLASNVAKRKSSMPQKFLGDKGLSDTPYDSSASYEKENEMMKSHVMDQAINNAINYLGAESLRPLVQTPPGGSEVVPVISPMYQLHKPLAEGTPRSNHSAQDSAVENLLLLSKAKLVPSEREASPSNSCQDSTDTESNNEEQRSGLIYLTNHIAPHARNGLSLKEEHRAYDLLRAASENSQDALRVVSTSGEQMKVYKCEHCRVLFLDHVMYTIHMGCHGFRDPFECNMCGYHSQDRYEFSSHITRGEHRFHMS
Sequence of IKZF1 (Q96SW2 whole entry): as the sequence (Q96SW2 whole entry) above
Sequence of IKZF1 (Q16531 2-1140 partner): as the sequence (Q16531 2-1140 partner) above

`Cn1ccc2c(CN3CC4COCC(C4)C3)cc(-c3ccc4c(c3)CN(C3CCC(=O)NC3=O)C4=O)nc21` (centres unmarked) [Example 70, 3-(5-(4-((3-oxa-7-azabicyclo[3.3.1]nonan-7-yl)methyl)-1-methyl-1H-pyrrolo[2,3-b]pyridin-6-yl)-1-oxoisoindolin-2-yl) piperidine-2,6-dione]: the IC50 in test [1] lay within 1000 to 5000 nM. Further, the DC50 in test [2] was 1 to 10 nM; in test [3], > 10000 nM. The Dmax in test [2] is > 80%; in test [3], < 20%.

As to `Cn1ccc2c(CN3CCC3c3ccccc3)cc(-c3ccc4c(c3)CN(C3CCC(=O)NC3=O)C4=O)nc21` (centres unmarked) [Example 71, 3-(5-(1-methyl-4-((2-phenylazetidin-1-yl)methyl)-1H-pyrrolo[2,3-b]pyridin-6-yl)-1-oxoisoindolin-2-yl) piperidine-2,6-dione], in test [1], the IC50 fell in the range of 100 to 500 nM. Besides, in test [2], the DC50 is 1 to 10 nM and the Dmax was > 80%. For the same compound, in test [3], the DC50 was > 10000 nM and the Dmax is 20 to 40%.

As to `Cn1ccc2c(CN3CC4CCCC4C3)cc(-c3ccc4c(c3)CN(C3CCC(=O)NC3=O)C4=O)nc21` (centres unmarked) [Example 72, 3-(5-(4-((hexahydrocyclopenta[c]pyrrol-2 (1H)-yl)methyl)-1-methyl-1H-pyrrolo[2,3-b]pyridin-6-yl)-1-oxoisoindolin-2-yl) piperidine-2,6-dione], in test [1], the IC50 was 100 to 500 nM. The DC50 was < 1 nM in test [2] and > 10000 nM in test [3]. For the same compound, the Dmax in test [2] was > 80%; in test [3], 40 to 60%.

`Cn1ccc2c(CN3CCC4(CC3)COC4)cc(-c3ccc4c(c3)CN(C3CCC(=O)NC3=O)C4=O)nc21` (centres unmarked) [Example 73, 3-(5-(4-((2-oxa-7-azaspiro[3.5]nonan-7-yl)methyl)-1-methyl-1H-pyrrolo[2,3-b]pyridin-6-yl)-1-oxoisoindolin-2-yl) piperidine-2,6-dione] gave an IC50 in test [1] of 100 to 500 nM. Further, in test [2], the DC50 was in the range of 1 to 10 nM and the Dmax was > 80%. For the same compound, in test [3], the DC50 was > 10000 nM and the Dmax lay in the range of 20 to 40%.

With `CCn1ccc2c(CN3CCCC3)cc(-c3ccc4c(c3)CN(C3CCC(=O)NC3=O)C4=O)nc21` (centres unmarked) [Example 74, 3-(5-(1-ethyl-4-(pyrrolidin-1-ylmethyl)-1H-pyrrolo[2,3-b]pyridin-6-yl)-1-oxoisoindolin-2-yl) piperidine-2,6-dione], in test [1], the IC50 is 500 to 1000 nM. Also, the DC50 is 1 to 10 nM in test [2] and > 10000 nM in test [3]. The Dmax in test [2] is > 80%; in test [3], < 20%.

For `Cn1ccc2c(CN3CCCC3)cc(-c3ccc4c(c3F)CN(C3CCC(=O)NC3=O)C4=O)nc21` (centres unmarked) [Example 75, 3-(4-fluoro-5-(1-methyl-4-(pyrrolidin-1-ylmethyl)-1H-pyrrolo[2,3-b]pyridin-6-yl)-1-oxoisoindolin-2-yl) piperidine-2,6-dione], in test [1], the IC50 lay within 100 to 500 nM. In addition, the DC50 in test [2] is < 1 nM; in test [3], > 10000 nM. The Dmax in test [2] is > 80%; in test [3], 20 to 40%.

As to `O=C1CCC(N2Cc3cc(-c4cc(CN5CCCC5)c5[nH]ccc5n4)ccc3C2=O)C(=O)N1` (centres unmarked) [Example 76, 3-(1-oxo-5-(7-(pyrrolidin-1-ylmethyl)-1H-pyrrolo[3,2-b]pyridin-5-yl)isoindolin-2-yl) piperidine-2,6-dione], in test [1], the IC50 is 1000 to 5000 nM. In addition, in test [2], the DC50 was < 1 nM and the Dmax is > 80%. For the same compound, in test [3], the DC50 is > 10000 nM and the Dmax is 20 to 40%.

In the case of `Cn1ccc2nc(-c3ccc4c(c3)CN(C3CCC(=O)NC3=O)C4=O)cc(CN3CCCC3)c21` (centres unmarked) [Example 77, 3-(5-(1-methyl-7-(pyrrolidin-1-ylmethyl)-1H-pyrrolo[3,2-b]pyridin-5-yl)-1-oxoisoindolin-2-yl) piperidine-2,6-dione], the IC50 in test [1] lay within 1000 to 5000 nM. In test [2], the DC50 was < 1 nM and the Dmax was > 80%. Also, in test [3], the DC50 is > 10000 nM and the Dmax was 20 to 40%.

In test [1], `O=C1CCC(N2Cc3cc(-c4cc(CN5CCCC5)c5ccccc5n4)ccc3C2=O)C(=O)N1` (centres unmarked) [Example 78, 3-(1-oxo-5-(4-(pyrrolidin-1-ylmethyl)quinolin-2-yl)isoindolin-2-yl) piperidine-2,6-dione] registered an IC50 of 500 to 1000 nM. Besides, in test [2], the DC50 was < 1 nM and the Dmax is > 80%. In test [3], the DC50 is > 10000 nM and the Dmax was 20 to 40%.

With `O=C1CCC(N2Cc3cc(-c4cc(CN5CCCC5)c5c(n4)CCCC5)ccc3C2=O)C(=O)N1` (centres unmarked) [Example 79, 3-(1-oxo-5-(4-(pyrrolidin-1-ylmethyl)-5,6,7,8-tetrahydroquinolin-2-yl)isoindolin-2-yl) piperidine-2,6-dione], the IC50 in test [1] was 100 to 500 nM. Besides, in test [2], the DC50 is < 1 nM and the Dmax was > 80%. For the same compound, in test [3], the DC50 is > 10000 nM and the Dmax is 20 to 40%.

In test [1], `O=C1CCC(N2Cc3cc(-c4cc(CN5CCCC5)c5c(n4)CCC5)ccc3C2=O)C(=O)N1` (centres unmarked) [Example 80, 3-(1-oxo-5-(4-(pyrrolidin-1-ylmethyl)-6,7-dihydro-5H-cyclopenta[b]pyridin-2-yl)isoindolin-2-yl) piperidine-2,6-dione] came in with an IC50 of 100 to 500 nM. For the same compound, in test [2], the DC50 is < 1 nM and the Dmax was > 80%. Also, the Dmax in test [3] was in the range of 20 to 40%.

In test [1], `CC1CCN(Cc2cc(-c3ccc4c(c3)CN(C3CCC(=O)NC3=O)C4=O)nc3c2ccn3C)CC1` (centres unmarked) [Example 81, 3-(5-(1-methyl-4-((4-methylpiperidin-1-yl)methyl)-1H-pyrrolo[2,3-b]pyridin-6-yl)-1-oxoisoindolin-2-yl) piperidine-2,6-dione] displayed an IC50 of 5000 to 10000 nM. In test [2], the DC50 is < 1 nM and the Dmax was > 80%. Moreover, in test [3], the DC50 fell in the range of 10 to 100 nM and the Dmax was in the range of 40 to 60%.

As for `Cn1ccc2c(CN3CCCC3)cc(-c3cc4c(cc3F)C(=O)N(C3CCC(=O)NC3=O)C4)nc21` (centres unmarked) [Example 82, 3-(6-fluoro-5-(1-methyl-4-(pyrrolidin-1-ylmethyl)-1H-pyrrolo[2,3-b]pyridin-6-yl)-1-oxoisoindolin-2-yl) piperidine-2,6-dione], the IC50 in test [1] was 5000 to 10000 nM. Moreover, in test [2], the DC50 is 100 to 1000 nM and the Dmax was 20 to 40%. Moreover, in test [3], the DC50 is > 10000 nM and the Dmax is < 20%.

Regarding `Cn1ccc2c(CN3CCCC3)cc(-c3cc4c(cc3Cl)C(=O)N(C3CCC(=O)NC3=O)C4)nc21` (centres unmarked) [Example 83, 3-(6-chloro-5-(1-methyl-4-(pyrrolidin-1-ylmethyl)-1H-pyrrolo[2,3-b]pyridin-6-yl)-1-oxoisoindolin-2-yl) piperidine-2,6-dione], the IC50 in test [1] lay within 1000 to 5000 nM. In test [2], the DC50 was 1 to 10 nM and the Dmax was > 80%. In test [3], the DC50 was > 10000 nM and the Dmax is < 20%.

For the compound `O=C1CCC(N2Cc3cc(-c4cc(CN5CCC5)c5cc[nH]c5n4)ccc3C2=O)C(=O)N1` (centres unmarked) [Example 84, 3-(5-(4-(azetidin-1-ylmethyl)-1H-pyrrolo[2,3-b]pyridin-6-yl)-1-oxoisoindolin-2-yl) piperidine-2,6-dione], the IC50 in test [1] is < 100 nM. Further, the DC50 lay in the range of 1 to 10 nM in test [2] and 10 to 100 nM in test [3]. Besides, the Dmax in test [2] is > 80%; in test [3], 20 to 40%.
